One test has as its target T1, His-SiaBb1 (Bifidobacterium bifidum, UniProt A0ABM7ET56).
T1 construct: gene BBBF_1779; His-tagged; native precursor 1,795 aa with Sec signal and C-terminal TM
Put plainly: fluorescence sialidase assay. It is filed as biochemical. Particulars: 50 μM recombinant protein, 30 min.

Test [1] concerns the target T2, His-Sia (sialidase domain of SiaBb2, aa 187 to 553) (Bifidobacterium bifidum, UniProt A0A1Y1C8G4).
T2 construct: conserved sialidase domain aa 187-553 of 835 aa precursor; N-terminal 6xHis tag; recombinant; biotinylated for glycoarray, immobilized on CM5 chip for SPR; GH33
Put plainly: SPR, His-Sia immobilized on CM5 chip. Particulars: HBS-EP pH 7.4, 25°C; binding decreased by 5 mM Neu5Ac2en; also glycoarray positive. For orientation: In SPR one partner is held on a chip, and binding of the other changes the refractive index at the surface.

A further test addresses T3, His-SiaBb2 (Bifidobacterium bifidum, UniProt A0A1Y1C8G4).
T3 construct: gene sia2; N-terminal 6xHis tag; native precursor 835 aa with Sec signal and C-terminal TM
T3 sequence (A0A1Y1C8G4 37-810): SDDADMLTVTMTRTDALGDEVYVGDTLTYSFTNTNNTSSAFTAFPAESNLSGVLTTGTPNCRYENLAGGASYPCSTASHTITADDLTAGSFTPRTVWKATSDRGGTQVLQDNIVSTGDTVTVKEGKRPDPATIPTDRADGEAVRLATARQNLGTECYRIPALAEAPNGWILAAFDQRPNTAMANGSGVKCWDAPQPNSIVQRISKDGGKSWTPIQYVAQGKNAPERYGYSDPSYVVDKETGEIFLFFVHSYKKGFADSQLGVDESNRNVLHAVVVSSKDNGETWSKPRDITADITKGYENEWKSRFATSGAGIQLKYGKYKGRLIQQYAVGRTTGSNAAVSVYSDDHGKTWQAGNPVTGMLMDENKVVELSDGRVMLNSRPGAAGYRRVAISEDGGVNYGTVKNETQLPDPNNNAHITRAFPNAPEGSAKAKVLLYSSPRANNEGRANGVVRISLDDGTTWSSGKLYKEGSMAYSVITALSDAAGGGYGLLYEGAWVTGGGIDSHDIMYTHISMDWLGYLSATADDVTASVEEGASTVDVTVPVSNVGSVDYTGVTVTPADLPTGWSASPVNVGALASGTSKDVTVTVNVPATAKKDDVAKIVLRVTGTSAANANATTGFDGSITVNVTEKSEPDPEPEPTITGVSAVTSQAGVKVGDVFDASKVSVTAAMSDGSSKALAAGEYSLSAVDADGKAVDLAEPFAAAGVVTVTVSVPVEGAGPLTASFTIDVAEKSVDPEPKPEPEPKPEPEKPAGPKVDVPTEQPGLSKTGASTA
As to the kind of experiment: inhibition of sialidase activity, dose response. It is filed as biochemical. Particulars: maximal inhibition at […].

SMILES strings stand for the structures.

T1 sequence (A0ABM7ET56 40-1795 limits assumed): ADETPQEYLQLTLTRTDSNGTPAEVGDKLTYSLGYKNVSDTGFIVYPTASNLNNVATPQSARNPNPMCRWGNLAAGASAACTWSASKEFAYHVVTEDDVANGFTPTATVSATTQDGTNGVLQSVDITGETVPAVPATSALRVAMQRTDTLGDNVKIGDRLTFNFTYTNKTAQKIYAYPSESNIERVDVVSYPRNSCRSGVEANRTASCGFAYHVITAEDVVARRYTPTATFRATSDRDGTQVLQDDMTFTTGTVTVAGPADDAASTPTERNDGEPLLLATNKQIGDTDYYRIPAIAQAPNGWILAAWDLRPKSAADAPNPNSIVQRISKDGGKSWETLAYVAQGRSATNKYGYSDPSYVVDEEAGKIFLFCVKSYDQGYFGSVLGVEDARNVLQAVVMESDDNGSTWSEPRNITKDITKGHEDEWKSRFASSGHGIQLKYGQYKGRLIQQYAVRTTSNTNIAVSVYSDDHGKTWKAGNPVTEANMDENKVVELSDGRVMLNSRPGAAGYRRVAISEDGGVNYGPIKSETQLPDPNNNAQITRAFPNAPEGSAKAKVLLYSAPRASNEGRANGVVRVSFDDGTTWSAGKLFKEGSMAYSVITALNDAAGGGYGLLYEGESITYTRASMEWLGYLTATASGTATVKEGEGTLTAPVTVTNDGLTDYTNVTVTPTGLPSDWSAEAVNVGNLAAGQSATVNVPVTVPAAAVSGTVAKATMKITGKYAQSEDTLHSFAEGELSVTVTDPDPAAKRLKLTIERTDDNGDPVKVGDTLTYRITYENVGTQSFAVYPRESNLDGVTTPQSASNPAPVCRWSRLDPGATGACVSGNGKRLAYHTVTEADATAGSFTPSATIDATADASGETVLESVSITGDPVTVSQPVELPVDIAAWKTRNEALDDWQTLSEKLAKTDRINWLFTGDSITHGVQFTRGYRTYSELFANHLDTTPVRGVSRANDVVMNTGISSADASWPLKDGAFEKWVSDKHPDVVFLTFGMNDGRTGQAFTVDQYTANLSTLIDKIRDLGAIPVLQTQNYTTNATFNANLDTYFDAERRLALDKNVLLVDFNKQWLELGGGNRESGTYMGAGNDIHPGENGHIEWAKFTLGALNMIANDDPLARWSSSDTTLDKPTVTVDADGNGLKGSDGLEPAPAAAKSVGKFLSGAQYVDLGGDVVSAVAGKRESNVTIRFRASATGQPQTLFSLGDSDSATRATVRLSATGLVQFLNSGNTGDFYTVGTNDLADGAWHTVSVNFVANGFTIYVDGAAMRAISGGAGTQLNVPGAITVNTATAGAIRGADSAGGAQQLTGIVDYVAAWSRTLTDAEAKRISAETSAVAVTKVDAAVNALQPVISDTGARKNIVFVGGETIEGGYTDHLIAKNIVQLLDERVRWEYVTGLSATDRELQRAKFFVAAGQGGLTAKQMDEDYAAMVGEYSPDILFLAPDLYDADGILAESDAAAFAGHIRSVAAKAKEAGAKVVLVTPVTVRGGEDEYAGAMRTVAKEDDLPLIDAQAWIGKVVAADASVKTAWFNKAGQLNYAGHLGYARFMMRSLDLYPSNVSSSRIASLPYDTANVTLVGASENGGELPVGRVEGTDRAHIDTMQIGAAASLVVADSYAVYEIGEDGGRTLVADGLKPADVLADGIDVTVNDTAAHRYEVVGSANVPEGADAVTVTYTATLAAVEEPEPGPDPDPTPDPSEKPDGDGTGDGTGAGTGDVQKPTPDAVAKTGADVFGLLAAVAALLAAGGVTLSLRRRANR

With `CC(=O)N[C@H]1[C@H]([C@H](O)[C@H](O)CO)OC(Oc2ccc3c(C)cc(=O)oc3c2)(C(=O)O)C[C@@H]1O` (stereo partly drawn) [4-MU-Neu5Ac, 2′-(4-methylumbelliferyl)-α-D-N-acetylneuraminic acid], the fluorescence sialidase assay result at His-SiaBb1 was “all sialidase peptides with the exception of His-ΔSia showed time-dependent enzymatic activity”.
In the case of `CC(=O)N[C@H]1[C@H]([C@H](O)[C@H](O)CO)O[C@@](OC[C@H]2O[C@@H](O[C@H]3[C@H](O)[C@@H](O)C(O)O[C@@H]3CO)[C@H](O)[C@@H](O)[C@H]2O)(C(=O)O)C[C@@H]1O` (stereo partly drawn) [6'SL], the “MR at 10 μM (analyte/ligand, end of association)” value in test [1] is given as 1.3.
For `CC(=O)N[C@H]1[C@H]([C@H](O)[C@H](O)CO)OC(C(=O)O)=C[C@@H]1O` [Neu5Ac2en, N-acetyl-2,3-didehydro-2-deoxyneuraminic acid], the “inhibition of sialidase activity, dose response” value against His-SiaBb2 was “Neu5Ac2en treatment inhibited the sialidase activity of His-SiaBb2 in a dose-dependent manner”.
